Reference: US20110201023A1, “MANNOSE 6-PHOSPHATE-BINDING ANTIBODIES AND THEIR USES” (UNIVERSITATSKLINKUM HAMBURGEPPENDORF, priority 2008, published 2011)
Blank lines part the entries; values can stand above or below the molecule they belong to.

Key:
scFv M6P-1 = assay: ELISA inhibition study: binding of scFv M6P-1 to immobilized PMP-BSA; set-up: species or system rabbit; conditions: for inhibition of the binding of scFv M6P-1 to PMP-BSA: even at high concentrations (0.01 to 100 mM tested); for IC50: scFv 0.6 μg/ml preincubated 1 h at 37° C. with 0.01 to 100 mM inhibitor, 45 pmol/cup PMP-BSA, read-out: 50% inhibition (IC50 value) of scFv M6P-1 binding to PMP-BSA
Protocol: ELISA was performed according to the protocol published in Phage-Display: A Laboratory Manual, Cold Spring Harbor Laboratory Press, New York (2001), protocol 19.8, pages 19.29-19.31. For ELISA using monoclonal phage or soluble scFv, PMP-BSA was immobilized by addition of 2.25 pmol neoglycoconjugate (45 pmol PMP ligand, solution in 50 mM carbonate buffer, pH 9.2) to each cup of the ELISA plates (MaxiSorp, Nunc) and overnight incubation at 4° C. Phages were detected using an anti-M13 monoclonal antibody (mAb) HRP-conjugate (GE Healthcare, Freiburg, Germany) and diammonium 2,2′-azino-bis(3-ethylbenzothiazoline-6-sulfonate (AzBTS-(NH4)2, Sigma-Aldrich) as substrate. For scFv-ELISA against PMP-BSA, purified scFv was added at a starting concentration of 5 μg/ml. Bound scFv was detected by incubation with anti-c-myc mAb (gift from Dr. C. R. MacKenzie, NRC of Canada, Ottawa, Canada) and HRP-conjugated goat-anti-mouse IgG H+L (Dianova, Hamburg, Germany). For ELISA inhibition studies, 45 pmoles PMP-BSA were immobilized on ELISA plates. Monomeric scFv M6P-1 was freshly prepared by gelfiltration (see above). Antibody fragment scFv (0.6 μg/ml final concentration) was preincubated for 1 h at 37° C. with or without 0.01 to 100 mM of mannose, glucose, glucose-6-phosphate (Glc6P), Fru1P, or Man6P. 50 μl scFv M6P-1 were added to PMP-BSA (45 pmol/cup ligand concentration). Bound scFv M6P-1 was quantified after incubation (i) with an antibody directed against the c-myc tag of the antibody scFv M6P-1 and (ii) a HRP-conjugated goat-anti-mouse H/L antibody. The […] reaction was measured spectrophotometrically at OD405. All data were measured in quadruplicates and the standard deviation from the mean is indicated. The data were analyzed using Origin version 6.0 software (MicroCal, Northampton, USA) and fitted to a 4 parameter logistic function. The data obtained for inhibition by Man6P and Fru1P were globally fitted to the four replicate data sets, each separately.

[1] = tested on: scFv M6P-1 conjugated beads / [125I]ASA (human arylsulfatase A); assay: Immunoprecipitation of [125I]ASA with scFv M6P-1 conjugated beads; format: binding
Protocol: Monomeric or dimeric scFv M6P-1 (about 1 mg/ml in PBS, pH 7.2) isolated by gel filtration (see above) was chemically immobilized to AminoLink Plus Coupling gel beads (Pierce, USA) following the suppliers instructions (1 mg scFv M6P-1 was coupled to 2 ml of settled beads). Human arylsulfatase A (ASA)(kindly provided by Dr. […]; Institute for Biochemistry, University of Bielefeld, Germany) was purified by affinity chromatography from media of BHK cells which overexpress the enzyme as described by Sommerlade et al. (1994) Biochem. J. 297, 123-130 and iodinated with IODO-GEN (Pierce) according to the manufacturer's instructions yielding [^125I]ASA with a specific activity of 2 μCi/μg. [^125I]ASA (400,000 cpm) was incubated with 50 μl scFv M6P-1 conjugated beads in 10 mM phosphate buffered saline pH 7.4 containing 0.05% Triton X-100 in a final volume of 0.5 ml in the absence or presence of increasing concentrations of Man6P for 10 h at 4° C. Subsequently, the beads were spun down at 1,200×g for 20 sec, and the supernatant was removed. The beads were washed three times with ice-cold binding buffer, twice with 1 mM phosphate buffered saline pH 7.4, and solubilized in SDS sample buffer. After removal of the beads, the supernatants were separated by SDS-PAGE (10% acrylamide), and the [^125I]ASA was visualized by autoradiography using Kodak films. The intensity of the [^125I]-labeled polypeptides was evaluated by densitometry. Alternatively, the [^125I]-labeled polypeptides were excised from the dried gel and counted in a γ-counter (Wizard 1470, Wallac, Turku, Finland).

[2] = Isothermal titration microcalorimetry; conditions: dimeric scFv M6P-1 in PBS pH 7.2; 10 mM Man6P injected; read-out: Kd for the binding of scFv M6P-1 to Man6P
Protocol: The comparison of IC50 values allows the ranking of different ligands according to their relative affinities, however, the absolute affinities in terms of Kd can not be obtained. Therefore, isothermal titration microcalorimetry measurements using Man6P as a ligand were performed. Purified dimeric scFv M6P-1 obtained after gel filtration (both a monomer and a dimer fraction are obtained) was concentrated in Centriprep YM-10 (Millipore) to a final concentration of 2.7 mg/ml in PBS, pH 7.2 and dialysed for 1 h at 20° C. against 500 ml of PBS. The same dialysis buffer was used for preparation of a 10 mM solution of Man6P (Na^+ salt, Sigma-Aldrich). Microcalorimetric experiments were performed on an MCS isothermal titration calorimeter (Microcal Inc., Northampton, Mass., USA). The microcalorimeter cell was filled with the antibody solution (volume=1.5 ml) and Man6P in dialysis buffer loaded into the syringe of the microcalorimeter. Both solutions were thoroughly degassed prior to loading. After temperature equilibration, the ligand was injected into the cell in 4 μl portions and the evolved heat measured with the first injection (1 μl) not considered for data analysis. […] Dissociation constants were determined using the MicroCal Origin version 2.9 analysis software and non-linear least squares curve fitting (1 set of binding sites).

PMP-BSA = assay: Phage ELISA against PMP-BSA; format: binding; conditions: 1:3 (v/v) dilutions of phage
Protocol: The reactivity of the enriched polyclonal phage was tested in an ELISA checkerboard titration against different concentrations of PMP-BSA (3-100 pmol/cup calculated for PMP concentration). At 50 pmol/cup reactivity of the polyclonal phage was observed selectively for PMP-BSA but not for BSA. BstOI (Promega GmbH, Germany) restriction digest of 20 colony PCR products indicated the presence of 7 different clones (4× type A, 10× type B, 2× type C and 1× types D-G). Twelve colonies representing the different types of sequences (5× type B, 2× type A, 1× each of types C-G) were selected for phage production and 1:3 (v/v) dilutions of phage were tested in ELISA against PMP-BSA. […]
ELISA was performed according to the protocol published in Phage-Display: A Laboratory Manual, Cold Spring Harbor Laboratory Press, New York (2001), protocol 19.8, pages 19.29-19.31. […] Phages were detected using an anti-M13 monoclonal antibody (mAb) HRP-conjugate (GE Healthcare, Freiburg, Germany) and diammonium 2,2′-azino-bis(3-ethylbenzothiazoline-6-sulfonate (AzBTS-(NH4)2, Sigma-Aldrich) as substrate. For scFv-ELISA against PMP-BSA, purified scFv was added at a starting concentration of 5 μg/ml. Bound scFv was detected by incubation with anti-c-myc mAb (gift from Dr. C. R. MacKenzie, NRC of Canada, Ottawa, Canada) and HRP-conjugated goat-anti-mouse IgG H+L (Dianova, Hamburg, Germany).

Molecule: O=P(O)(O)OC[C@@]1(O)OC[C@@H](O)[C@@H](O)[C@@H]1O [Fru1P, β-D-fructopyranose-1-phosphate]
IC50 (scFv M6P-1): 1100 µM

Molecule: O=C[C@H](O)[C@@H](O)[C@H](O)[C@H](O)COP(=O)(O)O [Glc6P, glucose 6-phosphate]
inhibition of the binding of scFv M6P-1 to PMP-BSA (scFv M6P-1): Neither | effect on binding of [125I]-ASA to the antibody beads ([1]; 5 mM): no effect

Molecule: O=C[C@@H](O)[C@@H](O)[C@H](O)[C@H](O)COP(=O)(O)O [Man6P, mannose 6-phosphate]
IC50 (scFv M6P-1): 2300 µM | inhibition of binding of [125I]-ASA to the antibody beads ([1]; Man6P in a concentration of more than 2.5 mM): completely inhibited | Ki ([1]; calculated from densitometric evaluation of autoradiographs or radioactivity in excised bands): 100 µM

Further lines, with some results ahead:

inhibition of the binding of scFv M6P-1 to PMP-BSA (scFv M6P-1): Neither
Molecule: O=C[C@@H](O)[C@@H](O)[C@H](O)[C@H](O)CO [mannose]

total offered [125I]-ASA bound specifically to the scFv M6P-1 conjugated beads ([1]; 10 h at 4° C., absence of Man6P): 20-25% | Kd [2]: 28 µM
B1: scFv M6P-1: recombinant rabbit single-chain antibody fragment which specifically binds mannose 6-phosphate; VL SEQ ID NO:7, VH SEQ ID NO:8 (antibody, listed as Oryctolagus cuniculus, V domains shown)
VH: QSVKESEGDLVKPGASLTLTCKASGFDFTWYTMNWVRQAPGKGLEWIACIGAGVYGSNYYASWAKGRFTISKASSTTVTLQMTSLTVADTATYFCARDGINGGYDIWGPGTLVTVSS
VL: ELVMTQTESPVSAAVGGTVTIKCQSSQSVYNNRLAWYQQKPGQRPKLLIYSASTLASGVPSRFKGSGSGTQFTLTISDLEWGDAATYYCHGGYRSNDDRYAFSGGTELEIL
modifications: scFv linker not given
reactivity of monoclonal phage in ELISA against PMP-BSA (PMP-BSA): reacted
